According to patent US4870002A, “Method of prevention of oxidative injury to cells” (priority 1985, dated 1989):
Where two headings read alike, the source gives them in different places.

Tests used:
[1] = Autoxidation of 3-amino-L-tyrosine solutions; type: physicochemical; details: solutions yellow with age
Description: The binding of 3-amino-L-tyrosine to the cell membrane via its alpha amino group, and the subsequent inhibition of CL by inhibiting the binding of Lu-BSA, is unlikely. […] The subsequent washing removes loosely bound 3-amino-L-tyrosine and the addition of the Lu-BSA at pH 6.9 favors BSA binding by the Schiff base reaction. […] The yellowing of 3-amino-L-tyrosine solutions with age is evidence of the oxidation.

[2] = test system: L5178Y murine lymphosarcoma cells; assay: Growth curve after gamma irradiation (final/initial cell density); type: cell-based
Procedure: The cell density in a mass culture of thymidine hypoxanthine methotrexate glycine/thymidine hypoxanthine glycine (THMG/THG) treated L5178Y cells was determined by Coulter counter and the cells were diluted with fresh warm F10p medium to bring the cell density for treatment to 600,000 cells/ml. Volumes of 10 ml of cell suspension were distributed into three T-25 flasks, and 0.05 ml volumes of solutions of 3-aminotyrosine, as well as a 0.05 ml of distilled water used as a control, to provide a ratio of 5 microliters per 1 ml of cell suspension (a 1:200 dilution) in each flask. In these experiments, the cells were treated with chemical under reduced lighting, but not as totally light sensitive.
The cells were then reincubated for 10 minutes at 37° C. The flasks were then placed simultaneously in the chamber of the GammaCell 40 irradiator at room temperature. The dose rate for the Cesium-137 exposure was 121.6 rads/min. It has been determined that the temperature of water in a T-25 flask originally at 37° C. placed in the irradiation chamber decreases during an 8 min period to approximately 30° C. Flasks were removed after exposure of 0, 250 rads (2.5 Gy), 500 rads (5.0 Gy), and 1000 rads (10 Gy).
After the irradiation, the cells were centrifuged and the supernatant discarded. The cells were resuspended in F10p medium, and again centrifuged. The washing process was repeated and the cells were resuspended in 10 ml of complete medium and counted.
A growth curve study was performed in duplicate by initiating flasks with 60 ml of cell suspension at 20,000 cells per ml. The cells were incubated at 37° C. with continued rotation in 250 ml plastic Erlenmeyer flasks. The cell density was determined by Coulter counter on a daily basis over a 72 hour period.
THMG/THG treated L5178Y cells were mass cultured and the cell density determined. Aliquots of the cell suspension with enough cells to give 300,000 cells per ml in 60 ml (1.8×10^7 cells) were distributed into three 50 ml centrifuge tubes, and after centrifugation, the original growth medium was discarded. The cells were resuspended in GIBCO custom formulation medium which had been prepared without phenol red. The cells were then washed one more time by centrifugation and resuspended again in 10 ml of the phenol red-free medium. These 10 ml suspensions of cells containing 1.8×10^7 cells were then transferred into three flasks already containing 50 ml of phenol red-free medium, distilled water, and either 100 nanomoles/ml or 2 micromoles/ml solutions of 3-aminotyrosine. The exposure system was treated as light sensitive (i.e., procedures were performed under gold light or reduced lighting). The cells were then incubated in the dark at 37° C. for 16 hours. Immediately prior to the end of the 16 hours, the cell density was determined by Coulter counter.
At 16 hours, the cells were irradiated at 0, 250, 500, and 1000 rads as described above in the GammaCell irradiator at room temperature. Immediately after irradiation was completed, the cells were centrifuged, washed twice with F10p, and resuspended in 10 ml of F10p. The cell density was again determined by Coulter counter. Growth curve determinations with initial seeding at 20,000 cells per ml were performed for 72 hours as described above. Cell survival assay by soft agar colony formation was performed as described above, using 0.22% BBL agar (BBL Microbiology Systems) in place of the DIFCO agar previously employed. After 11 days incubation at 37° C., colonies were counted and cell survival was determined.

[3] = test system: Con A-Lu-BSA labeled pig RBCs; assay: Chemiluminescence of Con A-Lu-BSA labeled pig RBCs with exogenous hydrogen peroxide; type: cell-based
Procedure: The luminol-bovine serum albumin (Lu-BSA) complex was made by mixing 2 mg luminol (5-amino-2, 3-dihydrophthalazine-1,4-dione), 0.2 ml of 2 mg BSA/ml PBS (pH 6.9), and 1.6 ml of PBS, pH 6.9. The preparation was then passed through a 0.22 μm nitrocellulose filter to remove insoluble luminol. Next, 0.2 ml of 2 mg Con A/ml of PBS, pH 6.9, was added to the filtrate. After gentle mixing, 10 μl of 25% glutaraldehyde were added. The solution was incubated in the refrigerator for 1 hour. To stop the conjugation, 100 mg of glycine was added to the solution. The solution was then pressed through a 48 ml column of dextran gel filtration beads equilibrated with PBS, pH 6.9. The gel exclusion size was greater than 5000 for globular molecules. The fractions were collected and tested for luminescent labeling activity.
One ml of supernatant of each 10 ml aliquot of 1:20 diluted RBCs was replaced with 1 ml of Con A-Lu-BSA solution as previously described. The preparation was incubated for 15 min. at 37° C. in a water-jacketedcell culture incubator. The cells were then pelleted in a clinical centrifuge, resuspended in PBS, and washed in the same manner two additional times. The washed cells were maintained at 4° C. until used the same day of preparation.
Following exposure to chemical or physical stressors, 100 μl of the RBC suspension was added to 500 μl of PBS, pH 7.4, containing 0.3% hydrogen peroxide, in a scintillation vial. To activate the sample, 100 μl of 0.1N NaOH were added to the vial in place in an ATP photometer (Integrating ATP Photometer Model 3000, Science Applications, San Diego, California 92121) The photometer was set to a dark count of 1 count/30 second at a sensitivity of 600 at room temperature (approximately 23° C.). All counts followed a 5 second delay period to allow for stabilization of the photomultiplier. The counts are reported as counts/30 sec.
All essays were run at room temperature. The post-collection age of those cells was 11-18 days and the cells were used the day of labeling. […] Pyruvate (1.43 mM), an autoxidizable substrate, doubled the CL of labeled cells.

Compound: Nc1cc(C[C@H](N)C(=O)O)ccc1O [3-aminotyrosine, 3-amino-L-tyrosine]
- autoxidation in solution, in words [1]: readily, autoxidizes
- Final Cell Density/Initial Cell Density ([2]; Sixteen hour incubation, 0 rads, 2 micromoles/ml): 71.4
- Final Cell Density/Initial Cell Density ([2]; Sixteen hour incubation, 0 rads, 100 nanomoles/ml): 83.3
- Final Cell Density/Initial Cell Density ([2]; Sixteen hour incubation, 250 rads, 2 micromoles/ml): 34.6
- Final Cell Density/Initial Cell Density ([2]; Sixteen hour incubation, 250 rads, 100 nanomoles/ml): 50.5
- Final Cell Density/Initial Cell Density ([2]; Sixteen hour incubation, 500 rads, 2 micromoles/ml): 6.1
- Final Cell Density/Initial Cell Density ([2]; Sixteen hour incubation, 500 rads, 100 nanomoles/ml): 5.3
- Final Cell Density/Initial Cell Density ([2]; Sixteen hour incubation, 1000 rads, 2 micromoles/ml): 1.1
- Final Cell Density/Initial Cell Density ([2]; Sixteen hour incubation, 1000 rads, 100 nanomoles/ml): 1.3
- Final Cell Density/Initial Cell Density ([2]; Zero hour incubation, 0 rads, 2 micromoles/ml): 25.0
- Final Cell Density/Initial Cell Density ([2]; Zero hour incubation, 0 rads, 100 nanomoles/ml): 20.0
- Final Cell Density/Initial Cell Density ([2]; Zero hour incubation, 250 rads, 2 micromoles/ml): 15.9
- Final Cell Density/Initial Cell Density ([2]; Zero hour incubation, 250 rads, 100 nanomoles/ml): 14.1
- Final Cell Density/Initial Cell Density ([2]; Zero hour incubation, 500 rads, 2 micromoles/ml): 7.7
- Final Cell Density/Initial Cell Density ([2]; Zero hour incubation, 500 rads, 100 nanomoles/ml): 7.7
- Final Cell Density/Initial Cell Density ([2]; Zero hour incubation, 1000 rads, 2 micromoles/ml): 2.2
- Final Cell Density/Initial Cell Density ([2]; Zero hour incubation, 1000 rads, 100 nanomoles/ml): 2.2
- CL (30 sec) ([3]; 160 μM): 5,430 ± 1,266 counts/30 sec
- CL (30 sec) ([3]; 1.44 mM): 844 ± 165 counts/30 sec
- activity at 160 µM ([3]; Sus scrofa, Erythrocyte, 160 μM, read-out: Percent control): 18%
- activity at 1440 µM ([3]; Sus scrofa, Erythrocyte, 1.44 mM, read-out: Percent control): 3%
- activity at 11500 µM ([3]; Sus scrofa, Erythrocyte, pretreatment 11.5 mM, 30 min at room temperature, read-out: Percent control): 74%
- inhibition at 160 µM ([3]; Sus scrofa, 160 μM, read-out: inhibition of CL of labeled RBCs): 82%
- inhibition at 1440 µM ([3]; Sus scrofa, 1.44 mM, read-out: inhibition of CL of labeled RBCs): 97%
- inhibition at 1440 µM ([3]; Sus scrofa, 1.44 mM, read-out: inhibition of the natural CL): 94%
- inhibition at 11500 µM ([3]; Sus scrofa, pretreatment of labeled cells with 11.5 mM, 30 min at room temperature, read-out: inhibition of CL): 26%
- CL (30 sec) ([3]; pretreatment 11.5 mM, 30 min at room temperature): 22,457 ± 2,128 counts/30 sec
